Measured values reported in patent US8268330B2 (priority 2007, dated 2012).

How the values were obtained:
TNF-α = TNF-α production after exposure to iron chelators (L929-cytotoxicity assay); format: cell-based, human; guinea pig; conditions: following HIF-1α upregulation and nuclear translocation
Description: (§1) Alveolar macrophages were procured from naïve and BCG-vaccinated guinea pigs by lavage of the lungs in situ immediately following euthanasia. The isolated cells were subjected to Percoll gradient centrifugation (BO & Babiuk) to remove contaminating epithelial cells, neutrophils and erythrocytes. The cells were subsequently incubated overnight in chamber slides (Nunc) in RPMI medium with 10% fetal bovine serum (FBS) and antibiotics to allow the cells to adhere. THP-1 and HL60 cells, obtained from the ATCC (Rockville, Md.), were maintained in suspension in RPMI/10% FBS. The various cell types were washed thoroughly in Hank's balanced salt solution (HBSS) before incubation in HBSS without or with mycobactin or desferroxamine at various concentrations and for various length of time (see result section). At the end of the incubation time the spend media were collected and stored at −70° C. for later assay for IL-8 and TNF-α. The cells were then either spotted onto Teflon coated slides for immunolabelling for HIF-1α or HO-1 (see above) or were subjected to differential lysis to procure cytoplasmic and nuclear proteins, respectively. The protein samples were separated on 10% SDS-polyacrylamide gels and blotted onto nitrocellulose membranes. […]
(§2) TNF-α was quantitated using the L929-cytotoxicity assay and TGFβ1 assay was done by ELISA.

[1] = test system: HIF-1α in THP-1 and HL-60 cells and guinea pig alveolar macrophages; test: Induction of HIF-1α in myelomonocytic cells and alveolar macrophages exposed to iron chelators in vitro; format: cell-based, human; guinea pig; conditions: for accumulation of cytoplasmic HIF-1α followed by nuclear translocation in a subset of the cells / concentration for HIF-1α induction effect (molar level): THP-1, HL-60 cells and guinea pig alveolar macrophages
IL-8 = IL-8 secretion after exposure to iron chelators (ELISA); format: cell-based, human; guinea pig; conditions: following HIF-1α nuclear translocation; enhanced by PMA differentiation of the human cells
TGFβ1 = TGFβ1 production after exposure to iron chelators (ELISA); format: cell-based, human; guinea pig; conditions: following HIF-1α upregulation and nuclear translocation
Description: as §1, §2

[2] = Iron binding capacity by the ferrozine method; format: physicochemical; conditions: for iron binding capacity: ferrozine method
Description: Iron saturated mycobactin J was purchased from Allied Monitor (Fayette, Mo.). Iron was removed and mycobactin purified by initially reconstituting the lyophilized solution of crude Fe^3+-mycobactin J complex in CHCl3 and 4N HCl. The suspension was stirred for 30 min. The water phase was separated and 4N HCl was added. After being stirred for 30 min, water phase was removed; this process was conducted three times to provide clear color solution. The CHCl3 phase was dried over Na2SO4, and concentrated in vacuo. Purification by SiO2 (CHCl3:MeOH=20:1) gave Fe^3+-free mycobactin J. The preparation was determined to be greater than 94% pure by NMR spectroscopy. Crude preparations of mycobactin J (50 mgs) yielded 9.8 mg following iron removal and purification. The iron binding capacity of iron saturated and Fe^3+-free preparations were determined by the ferrozine method (Eagle Diagnostics, Desoto, Tex.).

Row | Compound | induction of TNF-α production (TNF-α) | accumulation of cytoplasmic HIF-1α followed by nuclear translocation in a subset of the cells [1] | concentration for HIF-1α induction effect (molar level) [1] [µM] | IL-8 secretion (IL-8) | induction of TGFβ1 production (TGFβ1) | iron binding capacity [2] [µmol/L] | potency at inducing HIF-1α compared with desferrioxamine ([1]; THP-1 cells in vitro, molar equivalent) | iron binding capacity compared with desferrioxamine ([2]; compared on a molar equivalent)
1 | CC(=O)N(O)CCCCCNC(=O)CCC(=O)N(O)CCCCCNC(=O)CCC(=O)N(O)CCCCCN [desferroxamine, reference compound] | minimal | induced accumulation of cytoplasmic HIF-1α in a dose-dependent manner | 10 to 100 | induction of IL-8 secretion | minimal | – | – | –
2 | Fe^3+-free mycobactin J [Fe^3+-free preparation] | – | – | – | – | – | 66.7 | – | –
3 | Fe^3+-mycobactin J complex [Fe^3+-saturated mycobactin] | – | – | – | – | – | 0 | – | –
4 | mycobactin J | minimal | induced accumulation of cytoplasmic HIF-1α in a dose-dependent manner | 1 to 5 | induction of IL-8 secretion | minimal | – | significantly more potent | lower iron binding capacity than desferrioxamine
